Experimental data published in BigSolDB 2.1.

Work on `NC(N)=NC(N)=NCCc1ccccc1` yielded a solubility (mole fraction) (in 1,4-dioxane, 288.15 K) of 0.000166, a solubility (mole fraction) (in 1,4-dioxane, 293.15 K) of 0.000202 and a solubility (mole fraction) (in 1,4-dioxane, 298.15 K) of 0.000249. It also gave a solubility (mole fraction) (in 1,4-dioxane, 303.15 K) of 0.000312, a solubility (mole fraction) (in 1,4-dioxane, 308.15 K) of 0.000379 and a solubility (mole fraction) (in 1,4-dioxane, 313.15 K) of 0.00046. The solubility (mole fraction) (in 1,4-dioxane, 318.15 K) was 0.000551, the solubility (mole fraction) (in 1,4-dioxane, 323.15 K) was 0.00065 and the solubility (mole fraction) (in DMF, 278.15 K) was 0.0158. The solubility (mole fraction) (in DMF, 283.15 K) was 0.0191, the solubility (mole fraction) (in DMF, 288.15 K) was 0.0226 and the solubility (mole fraction) (in DMF, 293.15 K) was 0.0256. It also gave a solubility (mole fraction) (in DMF, 298.15 K) of 0.0303, a solubility (mole fraction) (in DMF, 303.15 K) of 0.0353 and a solubility (mole fraction) (in DMF, 308.15 K) of 0.0411. The solubility (mole fraction) (in DMF, 313.15 K) was 0.0491, the solubility (mole fraction) (in DMF, 318.15 K) was 0.0579 and the solubility (mole fraction) (in DMF, 323.15 K) was 0.0655. It also gave a solubility (mole fraction) (in DMSO, 293.15 K) of 0.0217, a solubility (mole fraction) (in DMSO, 298.15 K) of 0.025 and a solubility (mole fraction) (in DMSO, 303.15 K) of 0.0305. The solubility (mole fraction) (in DMSO, 308.15 K) was 0.0359, the solubility (mole fraction) (in DMSO, 313.15 K) was 0.0431 and the solubility (mole fraction) (in DMSO, 318.15 K) was 0.0508. The solubility (mole fraction) (in DMSO, 323.15 K) was 0.0603, the solubility (mole fraction) (in NMP, 278.15 K) was 0.0113 and the solubility (mole fraction) (in NMP, 283.15 K) was 0.014. For the same molecule, the solubility (mole fraction) (in NMP, 288.15 K) was 0.017, the solubility (mole fraction) (in NMP, 293.15 K) was 0.0202 and the solubility (mole fraction) (in NMP, 298.15 K) was 0.0235. For the same molecule, the solubility (mole fraction) (in NMP, 303.15 K) was 0.028, the solubility (mole fraction) (in NMP, 308.15 K) was 0.0337 and the solubility (mole fraction) (in NMP, 313.15 K) was 0.0409. For the same molecule, the solubility (mole fraction) (in NMP, 318.15 K) was 0.0486, the solubility (mole fraction) (in NMP, 323.15 K) was 0.0579 and the solubility (mole fraction) (in acetonitrile, 278.15 K) was 0.000211. It also gave a solubility (mole fraction) (in acetonitrile, 283.15 K) of 0.00026, a solubility (mole fraction) (in acetonitrile, 288.15 K) of 0.000322 and a solubility (mole fraction) (in acetonitrile, 293.15 K) of 0.000398. It also gave a solubility (mole fraction) (in acetonitrile, 298.15 K) of 0.000494, a solubility (mole fraction) (in acetonitrile, 303.15 K) of 0.000596 and a solubility (mole fraction) (in acetonitrile, 308.15 K) of 0.00071. For the same molecule, the solubility (mole fraction) (in acetonitrile, 313.15 K) was 0.00084, the solubility (mole fraction) (in acetonitrile, 318.15 K) was 0.00101 and the solubility (mole fraction) (in acetonitrile, 323.15 K) was 0.00119. It also gave a solubility (mole fraction) (in ethanol, 278.15 K) of 0.00183, a solubility (mole fraction) (in ethanol, 283.15 K) of 0.0022 and a solubility (mole fraction) (in ethanol, 288.15 K) of 0.00266. The solubility (mole fraction) (in ethanol, 293.15 K) was 0.00322, the solubility (mole fraction) (in ethanol, 298.15 K) was 0.00378 and the solubility (mole fraction) (in ethanol, 303.15 K) was 0.00449. For the same molecule, the solubility (mole fraction) (in ethanol, 308.15 K) was 0.00524, the solubility (mole fraction) (in ethanol, 313.15 K) was 0.00614 and the solubility (mole fraction) (in ethanol, 318.15 K) was 0.00723. For the same molecule, the solubility (mole fraction) (in ethanol, 323.15 K) was 0.00847, the solubility (mole fraction) (in ethyl acetate, 278.15 K) was 0.00157 and the solubility (mole fraction) (in ethyl acetate, 283.15 K) was 0.00184. The solubility (mole fraction) (in ethyl acetate, 288.15 K) was 0.0022, the solubility (mole fraction) (in ethyl acetate, 293.15 K) was 0.00265 and the solubility (mole fraction) (in ethyl acetate, 298.15 K) was 0.00318. The solubility (mole fraction) (in ethyl acetate, 303.15 K) was 0.00379, the solubility (mole fraction) (in ethyl acetate, 308.15 K) was 0.00445 and the solubility (mole fraction) (in ethyl acetate, 313.15 K) was 0.00521. The solubility (mole fraction) (in ethyl acetate, 318.15 K) was 0.00603, the solubility (mole fraction) (in ethyl acetate, 323.15 K) was 0.00695 and the solubility (mole fraction) (in ethylene glycol, 278.15 K) was 0.0033. For the same molecule, the solubility (mole fraction) (in ethylene glycol, 283.15 K) was 0.00366, the solubility (mole fraction) (in ethylene glycol, 288.15 K) was 0.00417 and the solubility (mole fraction) (in ethylene glycol, 293.15 K) was 0.00481. It also gave a solubility (mole fraction) (in ethylene glycol, 298.15 K) of 0.00567, a solubility (mole fraction) (in ethylene glycol, 303.15 K) of 0.00677 and a solubility (mole fraction) (in ethylene glycol, 308.15 K) of 0.00774. For the same molecule, the solubility (mole fraction) (in ethylene glycol, 313.15 K) was 0.00919, the solubility (mole fraction) (in ethylene glycol, 318.15 K) was 0.011 and the solubility (mole fraction) (in ethylene glycol, 323.15 K) was 0.0128. For the same molecule, the solubility (mole fraction) (in isobutanol, 278.15 K) was 0.000518, the solubility (mole fraction) (in isobutanol, 283.15 K) was 0.00063 and the solubility (mole fraction) (in isobutanol, 288.15 K) was 0.000792. The solubility (mole fraction) (in isobutanol, 293.15 K) was 0.00095, the solubility (mole fraction) (in isobutanol, 298.15 K) was 0.00116 and the solubility (mole fraction) (in isobutanol, 303.15 K) was 0.00139. For the same molecule, the solubility (mole fraction) (in isobutanol, 308.15 K) was 0.00167, the solubility (mole fraction) (in isobutanol, 313.15 K) was 0.00197 and the solubility (mole fraction) (in isobutanol, 318.15 K) was 0.00229. For the same molecule, the solubility (mole fraction) (in isobutanol, 323.15 K) was 0.00265, the solubility (mole fraction) (in isopropanol, 278.15 K) was 0.000814 and the solubility (mole fraction) (in isopropanol, 283.15 K) was 0.000976. It also gave a solubility (mole fraction) (in isopropanol, 288.15 K) of 0.00118, a solubility (mole fraction) (in isopropanol, 293.15 K) of 0.00142 and a solubility (mole fraction) (in isopropanol, 298.15 K) of 0.00174. For the same molecule, the solubility (mole fraction) (in isopropanol, 303.15 K) was 0.00208, the solubility (mole fraction) (in isopropanol, 308.15 K) was 0.00247 and the solubility (mole fraction) (in isopropanol, 313.15 K) was 0.00288. It also gave a solubility (mole fraction) (in isopropanol, 318.15 K) of 0.00334, a solubility (mole fraction) (in isopropanol, 323.15 K) of 0.00383 and a solubility (mole fraction) (in methanol, 278.15 K) of 0.00237. For the same molecule, the solubility (mole fraction) (in methanol, 283.15 K) was 0.0028, the solubility (mole fraction) (in methanol, 288.15 K) was 0.00328 and the solubility (mole fraction) (in methanol, 293.15 K) was 0.00385. It also gave a solubility (mole fraction) (in methanol, 298.15 K) of 0.00457, a solubility (mole fraction) (in methanol, 303.15 K) of 0.00532 and a solubility (mole fraction) (in methanol, 308.15 K) of 0.00623. It also gave a solubility (mole fraction) (in methanol, 313.15 K) of 0.00743, a solubility (mole fraction) (in methanol, 318.15 K) of 0.00823 and a solubility (mole fraction) (in methanol, 323.15 K) of 0.0103. The solubility (mole fraction) (in n-butanol, 278.15 K) was 0.000627, the solubility (mole fraction) (in n-butanol, 283.15 K) was 0.000777 and the solubility (mole fraction) (in n-butanol, 288.15 K) was 0.000923. The solubility (mole fraction) (in n-butanol, 293.15 K) was 0.00118, the solubility (mole fraction) (in n-butanol, 298.15 K) was 0.00142 and the solubility (mole fraction) (in n-butanol, 303.15 K) was 0.00167. For the same molecule, the solubility (mole fraction) (in n-butanol, 308.15 K) was 0.00194, the solubility (mole fraction) (in n-butanol, 313.15 K) was 0.00227 and the solubility (mole fraction) (in n-butanol, 318.15 K) was 0.00265. The solubility (mole fraction) (in n-butanol, 323.15 K) was 0.00308, the solubility (mole fraction) (in n-propanol, 278.15 K) was 0.000975 and the solubility (mole fraction) (in n-propanol, 283.15 K) was 0.00116. It also gave a solubility (mole fraction) (in n-propanol, 288.15 K) of 0.00137, a solubility (mole fraction) (in n-propanol, 293.15 K) of 0.00173 and a solubility (mole fraction) (in n-propanol, 298.15 K) of 0.00208. It also gave a solubility (mole fraction) (in n-propanol, 303.15 K) of 0.00249, a solubility (mole fraction) (in n-propanol, 308.15 K) of 0.0029 and a solubility (mole fraction) (in n-propanol, 313.15 K) of 0.00341. The solubility (mole fraction) (in n-propanol, 318.15 K) was 0.00396, the solubility (mole fraction) (in n-propanol, 323.15 K) was 0.00452 and the solubility (mole fraction) (in water, 278.15 K) was 0.000389. It also gave a solubility (mole fraction) (in water, 283.15 K) of 0.000481, a solubility (mole fraction) (in water, 288.15 K) of 0.000585 and a solubility (mole fraction) (in water, 293.15 K) of 0.000739. For the same molecule, the solubility (mole fraction) (in water, 298.15 K) was 0.000888, the solubility (mole fraction) (in water, 303.15 K) was 0.00107 and the solubility (mole fraction) (in water, 308.15 K) was 0.00126. For the same molecule, the solubility (mole fraction) (in water, 313.15 K) was 0.00148, the solubility (mole fraction) (in water, 318.15 K) was 0.00175 and the solubility (mole fraction) (in water, 323.15 K) was 0.00206.
